Test results from publication PMC10341786 (International Journal of Molecular Sciences, 2023).

Assays:
in vitro [1] = details: pig
in vitro [2] = details: pig; remark: listed apart in the source
TBEV = experiment: microbe, parasite or virus in culture; assay type: cell-based, Tick-borne encephalitis virus strain Absettarov; details: Tick-borne encephalitis virus, PEK, read-out: TBEV EC50
in vitro [3] = details: African green monkey
WNV = experiment: microbe, parasite or virus in culture; assay type: cell-based, West Nile virus strain Strix nebulosa-12; details: West Nile virus, Vero, read-out: WNV EC50
in vitro [4] = details: African green monkey; remark: listed apart in the source

| Compound | CC50 (in vitro [1]) | CC50 (in vitro [2]) | EC50 (TBEV) | CC50 (in vitro [3]) | EC50 (WNV) | CC50 (in vitro [4]) | melting point |
| --- | --- | --- | --- | --- | --- | --- | --- |
| CS(=O)(=O)NC1=NOC2(CCCCCCC2)C1 [3a] | > 50 µM | > 50 µM | > 100 µM | > 50 µM | 31 ± 2 µM | > 50 µM |  |
| O=S(=O)(NC1=NOC2(CCCCCCC2)C1)c1ccccc1 [3c] | > 50 µM | > 50 µM | > 50 µM | > 50 µM | 25 ± 7 µM | > 50 µM |  |
| Cc1ccc(S(=O)(=O)NC2=NOC3(CCCCCCC3)C2)cc1 [3d] | > 50 µM | > 50 µM | > 50 µM | > 50 µM | 14 ± 5 µM | > 50 µM |  |
| Cc1cc(C)c(S(=O)(=O)NC2=NOC3(CCCCCCC3)C2)c(C)c1 [3e] | > 50 µM | > 50 µM | 18 ± 7 µM | > 50 µM | 22 ± 4 µM | > 50 µM |  |
| O=S(=O)(NC1=NOC2(CCCCCCC2)C1)c1ccc2c(c1)OCCO2 [3f] | > 50 µM | > 50 µM | > 50 µM | > 50 µM | 18 ± 6 µM | > 50 µM |  |
| O=S(=O)(NC1=NOC2(CCCCCCC2)C1)c1ccc(F)cc1F [3g] | > 50 µM | > 50 µM | > 100 µM | > 50 µM | 28.4 ± 2.2 µM | > 50 µM |  |
| O=[N+]([O-])c1ccccc1S(=O)(=O)NC1=NOC2(CCCCCCC2)C1 [3h] | > 50 µM | > 50 µM | 28 ± 7 µM | > 50 µM | 21.5 ± 0.9 µM | > 50 µM |  |
| O=S(=O)(NC1=NOC2(CCCCCCC2)C1)c1cccs1 [3k] | > 50 µM | > 50 µM | > 100 µM | > 50 µM | 6.1 ± 1.3 µM | > 50 µM |  |
| O=S(=O)(NC1=NOC2(CCCCCCC2)C1)c1cccnc1 [3l] | > 50 µM | > 50 µM | > 100 µM | > 50 µM | 11 ± 7 µM | > 50 µM |  |
| CS(=O)(=O)N(C1=NOC2(CCCCCCC2)C1)S(C)(=O)=O [4a, N-(Methylsulfonyl)-N-(1-oxa-2-azaspiro[4.7]dodec-2-en-3-yl)methanesulfonamide] | > 50 µM | > 50 µM | 27 ± 12 µM | > 50 µM | 10 ± 6 µM | > 50 µM | 139 to 141 °C |
| O=S(=O)(Cc1ccccc1)N(C1=NOC2(CCCCCCC2)C1)S(=O)(=O)Cc1ccccc1 [4b, N-(Benzylsulfonyl)-1-phenyl-N-(1-oxa-2-azaspiro[4.7]dodec-2-en-3-yl)methanesulfonamide] | > 50 µM | > 50 µM | > 50 µM | > 50 µM | 16 ± 8 µM | > 50 µM | 176 to 177 °C |
| O=S(=O)(c1ccccc1)N(C1=NOC2(CCCCCCC2)C1)S(=O)(=O)c1ccccc1 [4c, N-(Phenylsulfonyl)-N-(1-oxa-2-azaspiro[4.7]dodec-2-en-3-yl)benzenesulfonamide] | > 50 µM | > 50 µM | 9 ± 2 µM | > 50 µM | 2.6 ± 1.4 µM | > 50 µM | 139 to 141 °C |
| Cc1ccc(S(=O)(=O)N(C2=NOC3(CCCCCCC3)C2)S(=O)(=O)c2ccc(C)cc2)cc1 [4d, 4-Methyl-N-(1-oxa-2-azaspiro[4.7]dodec-2-en-3-yl)-N-tosylbenzenesulfonamide] | > 50 µM | > 50 µM | 21 ± 13 µM | > 50 µM | 3 ± 1.9 µM | > 50 µM | 151 to 153 °C |
| Cc1cc(C)c(S(=O)(=O)N(C2=NOC3(CCCCCCC3)C2)S(=O)(=O)c2c(C)cc(C)cc2C)c(C)c1 [4e, N-(Mesitylsulfonyl)-2,4,6-trimethyl-N-(1-oxa-2-azaspiro[4.7]dodec-2-en-3-yl)benzenesulfonamide] | > 50 µM | > 50 µM | 12 ± 7 µM | > 50 µM | 4.8 ± 1 µM | > 50 µM | 180 to 182 °C |
